What is called IC50 is the concentration at which inhibition is half-maximal. A high value points to weaker potency in that assay.

Some results are limits rather than exact numbers.

One experiment deals with MDA-MB-435. Briefly: Inhibitory concentration against human breast carcinoma cell line proliferation. The experiment is classed as functional, cell-based.
A further experiment deals with RKO. Description: Inhibitory concentration against human colon cancer (RKO) cell line proliferation. Type of experiment: functional, cell-based.
A short description of experiment [1]: Inhibition of blocked progression of G0 synchronized cell into S phase using G1-S cell cycle progression assay. The experiment is classed as functional.
For experiment [2], the target named is Cyclin-dependent kinase 2 (Homo sapiens, UniProt P24941). Description: In vitro inhibition of Cyclin-dependent kinase 2.

Regarding `NCC[S+]([O-])c1cc(-c2ccc[nH]2)c2c3c(ccc(F)c13)NC2=O` (centres undefined), the half-maximal inhibitory concentration (IC50) in the experiment with MDA-MB-435 turned out to be 1210 nM; with RKO it was 420 nM; in experiment [1], 1870 nM; in experiment [2] it was 28 nM.

The compound `CCOc1cc(-c2ccc[nH]2)c2c3c(ccc(F)c13)NC2=O` showed a 50% inhibitory concentration (IC50) in experiment [2] of 77 nM.

Regarding `NCCSc1cc(-c2ccc[nH]2)c2c3c(ccc(F)c13)NC2=O`, the IC50 amounted to 310 nM in the experiment on MDA-MB-435, 100 nM with RKO, 810 nM in experiment [1] and 3 nM in experiment [2].

In the case of `O=C1Nc2ccc(F)c3c(SC[C@@H]4CCCN4)cc(-c4ccc[nH]4)c1c23`, the IC50 came out at 210 nM in the experiment on MDA-MB-435, 60 nM in the experiment with RKO and 18 nM in experiment [2].

On to `CCc1cc(-c2ccc[nH]2)c2c3c(ccc(F)c13)NC2=O`, for which, in experiment [2], the midpoint of inhibition, the IC50, lay at 72 nM.

For `O=C1Nc2ccc(F)c3c(S[C@H]4CCNC4)cc(-c4ccc[nH]4)c1c23`, the half-inhibitory concentration (IC50) turned out to be 120 nM in the experiment with MDA-MB-435, 70 nM with RKO and 5 nM in experiment [2].

As for `CC(=O)NCCNc1cc(-c2ccc[nH]2)c2c3c(ccc(F)c13)NC2=O`, the half-maximal inhibitory concentration (IC50) in experiment [2] amounted to 127 nM.

With `O=C1Nc2ccc(F)c3c(S(=O)(=O)CCO)cc(-c4ccc[nH]4)c1c23`, the half-maximal inhibitory concentration (IC50) turned out to be 3200 nM with MDA-MB-435, 1200 nM in the experiment with RKO and 15 nM in experiment [2].

In experiment [2], `CCN(CC)CCNc1cc(-c2ccc[nH]2)c2c3c(ccc(F)c13)NC2=O` had an IC50 of 294 nM.

In experiment [2], `Cc1cc(-c2ccc[nH]2)c2c3c(ccc(F)c13)NC2=O` showed a half-maximal inhibitory concentration (IC50) of 376 nM.

Turning to `NCCNc1cc(-c2ccc[nH]2)c2c3c(ccc(F)c13)NC2=O`, half-maximal inhibition in experiment [1] (IC50) required 1490 nM.

For `O=C1Nc2ccc(F)c3c(OCCCO)cc(-c4ccc[nH]4)c1c23`, the IC50 in experiment [2] came to 18 nM.

As for `O=C1Nc2ccc(F)c3c(OCCO)cc(-c4ccc[nH]4)c1c23`, the half-maximal inhibitory concentration (IC50) with MDA-MB-435 is 580 nM; in the experiment on RKO, 500 nM; in experiment [1] it was 10900 nM; in experiment [2] it was 62 nM.

`CC(C)Cc1cc(-c2ccc[nH]2)c2c3c(ccc(F)c13)NC2=O`: the IC50 in experiment [2] was 124 nM.

Consider `O=C1Nc2ccc(F)c3c(SCCO)cc(-c4ccc[nH]4)c1c23`, for which the IC50 in the experiment with MDA-MB-435 was 1730 nM; in the experiment on RKO it was 1480 nM; in experiment [1], 2740 nM; in experiment [2], 14 nM.

Turning to `CC(=O)OCCCOc1cc(-c2ccc[nH]2)c2c3c(ccc(F)c13)NC2=O`, the IC50 in experiment [2] was greater than 1000 nM.

Consider `NCCCc1cc(-c2ccc[nH]2)c2c3c(ccc(F)c13)NC2=O`, for which, in experiment [2], inhibition was half-maximal at 7 nM (IC50).

As for `NCCCNc1cc(-c2ccc[nH]2)c2c3c(ccc(F)c13)NC2=O`, the IC50 in the experiment with MDA-MB-435 stood at 70 nM; with RKO, 120 nM; in experiment [1] it was 2040 nM; in experiment [2], 48 nM.

Take `O=C1Nc2ccc(F)c3ccc(-c4ccc[nH]4)c1c23`: the half-inhibitory concentration (IC50) in the experiment on MDA-MB-435 is 2280 nM; with RKO, 5950 nM; in experiment [1], greater than 30000 nM; in experiment [2], 204 nM.

On to `NCCS(=O)(=O)c1cc(-c2ccc[nH]2)c2c3c(ccc(F)c13)NC2=O`, for which the 50% inhibitory concentration (IC50) in the experiment with MDA-MB-435 was found to be 1080 nM; in the experiment on RKO it was 430 nM; in experiment [2] it was 23 nM.

Consider `COc1cc(-c2ccc[nH]2)c2c3c(ccc(F)c13)NC2=O`, for which the half-maximal inhibitory concentration (IC50) in the experiment on MDA-MB-435 came to 890 nM; with RKO it was 750 nM; in experiment [1], 7100 nM; in experiment [2], 18 nM.

As to `N#CCCc1cc(-c2ccc[nH]2)c2c3c(ccc(F)c13)NC2=O`, the midpoint of inhibition in experiment [2], the IC50, lay at 5 nM.

Regarding `O=C1Nc2ccc(F)c3c(NCCO)cc(-c4ccc[nH]4)c1c23`, the IC50 came out at 620 nM in the experiment with MDA-MB-435, 740 nM in the experiment on RKO, 2390 nM in experiment [1] and 54 nM in experiment [2].

In experiment [2], `CC(C)(C)OC(=O)NCCNc1cc(-c2ccc[nH]2)c2c3c(ccc(F)c13)NC2=O` came in with an IC50 of 5500 nM.

Regarding `NCCOc1cc(-c2ccc[nH]2)c2c3c(ccc(F)c13)NC2=O`, the 50% inhibitory concentration (IC50) in the experiment on MDA-MB-435 stood at 380 nM; with RKO it was 110 nM; in experiment [1], 910 nM; in experiment [2], 12 nM.

For `CC(C)(N)CNc1cc(-c2ccc[nH]2)c2c3c(ccc(F)c13)NC2=O`, the IC50 with MDA-MB-435 turned out to be 160 nM; with RKO, 110 nM; in experiment [1], 1670 nM; in experiment [2], 65 nM.
